From patent US7019021B2, “Compounds and methods for treating urinary incontinence” (Boehringer Ingelheim Pharma GmbH & Co. KG, priority 1995, dated 2006)

Test system: urethra
Assay: Intraluminal pressure of the urethra in the anaesthetised rabbit
Format: in vivo
Conditions: i.v.; for Contraction of the urethra / Duration of effect (contraction of the urethra): female Japanese white rabbits, urethane anaesthesia, phenylephrine 30 μg/kg vs Example 2 10 μg/kg, phenylephrine = 100
Experimental: Female Japanese white rabbits (weighing 3.0 to 3.5 kg) are anaesthetised with urethane (1 g/kg i.p.). A polyethylene cannula is inserted in the urinary bladder by means of a small incision. The changes in the intraluminal pressure are recorded by means of balloon in the urethra which contains about 1.5 ml of water at 37° C.

[1] = rabbit, 10 μg/kg Example 2 vs 30 μg/kg phenylephrine, factor

**Q.** How did the “Contraction of the urethra” value turn out when Cc1c(N(C)C)ccc(Br)c1N=C1NCCN1 [Example 2, 2-(6-Bromo-3-dimethylamino-2-methylphenylimino)imidazolidine] was run?
**A.** Its value is 273%.

**Q.** What about the “Duration of effect (contraction of the urethra)” value of the same molecule?
**A.** Its value is 430%.

**Q.** And the “duration of effect (contraction of the urethra), longer by a factor compared with phenylephrine” value [1]?
**A.** Its value is 4.3.

**Q.** And the “potency with regard to the contraction of the urethra, higher by a factor compared with phenylephrine” value [1]?
**A.** Its value is 2.73.

**Q.** Which results are given for CNC[C@H](O)c1cccc(O)c1 [Phenylephrine, phenylephrine]?
**A.** Contraction of the urethra: 100%; Duration of effect (contraction of the urethra): 100%
